Data: publication PMC9234961 (Journal of Medicinal Chemistry, 2022)

How the values were obtained:
[1] = Microsomal clearance assay (HLM); format: in vitro ADME; details: human liver microsomes, 1 μM compound
Protocol: 6. Supplementary experimental: in vitro DMPK assays
6.1 Microsomal clearance assay
Microsomal clearance was determined in female CD1 mice, female Sprague–Dawley rats, and mixed gender human liver microsomes obtained from BioIVT (Peterborough, U.K.) following incubation of 1 μM compound at 37 °C in 0.5 mg/mL microsomal protein, 3 mmol/L MgCl2, 1 mmol/L NADPH, 2.5 mmol/L and 10 mmol/L phosphate buffer (pH 7.4) (all purchased from Sigma-Aldrich, Gillingham, U.K). Reactions were started by addition of the cofactors following 10 min preincubation of microsomes with test compound and were terminated at −1, 0, 5, 10, 15, and 30 min with three volumes of ice-cold methanol containing internal standard. Samples were centrifuged at 2800g for 30 min at 4 °C and the supernatants analyzed.
Control incubations were prepared as above with omission of cofactors. Compound measurements were […]
separation with a 3 min gradient of 0.1% formic acid in methanol on a Kinetex C18, 50 × 2.1 mm 2.6 μm UPLC column (Phenomenex, Macclesfield, UK). […]

GABAA = GABAA (Homo sapiens, UniProt P14867+P18507+P47870); test: SAFETYScan Ion Channel, Opener; format: cell-based; details: read-out: Max Response
Excerpt: (§1) Supplement jm1c02175_si_002.xlsx, sheet "SAFETYScan" | column: RC50 (uM); Max Response

HTR3A = molecular target: T1, HTR3A (Homo sapiens, UniProt P46098); test: SAFETYScan Ion Channel, Opener; format: cell-based
T1 sequence (P46098 24-478): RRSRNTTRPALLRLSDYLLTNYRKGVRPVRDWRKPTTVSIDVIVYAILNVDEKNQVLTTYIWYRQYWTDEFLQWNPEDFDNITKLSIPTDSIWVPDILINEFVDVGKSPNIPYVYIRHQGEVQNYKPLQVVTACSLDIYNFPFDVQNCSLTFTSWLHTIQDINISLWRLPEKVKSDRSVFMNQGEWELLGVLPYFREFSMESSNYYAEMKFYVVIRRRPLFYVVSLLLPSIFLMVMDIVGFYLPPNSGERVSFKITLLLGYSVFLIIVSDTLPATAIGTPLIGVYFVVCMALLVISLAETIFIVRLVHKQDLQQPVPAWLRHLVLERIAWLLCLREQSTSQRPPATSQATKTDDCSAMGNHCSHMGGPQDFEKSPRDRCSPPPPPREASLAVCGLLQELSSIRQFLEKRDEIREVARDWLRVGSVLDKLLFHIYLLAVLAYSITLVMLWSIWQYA
Excerpt: as §1

KvLQT1/minK = KvLQT1/minK (Homo sapiens, UniProt P51787); test: SAFETYScan Ion Channel, Opener; format: cell-based
KvLQT1/minK, sequence (P51787 whole entry): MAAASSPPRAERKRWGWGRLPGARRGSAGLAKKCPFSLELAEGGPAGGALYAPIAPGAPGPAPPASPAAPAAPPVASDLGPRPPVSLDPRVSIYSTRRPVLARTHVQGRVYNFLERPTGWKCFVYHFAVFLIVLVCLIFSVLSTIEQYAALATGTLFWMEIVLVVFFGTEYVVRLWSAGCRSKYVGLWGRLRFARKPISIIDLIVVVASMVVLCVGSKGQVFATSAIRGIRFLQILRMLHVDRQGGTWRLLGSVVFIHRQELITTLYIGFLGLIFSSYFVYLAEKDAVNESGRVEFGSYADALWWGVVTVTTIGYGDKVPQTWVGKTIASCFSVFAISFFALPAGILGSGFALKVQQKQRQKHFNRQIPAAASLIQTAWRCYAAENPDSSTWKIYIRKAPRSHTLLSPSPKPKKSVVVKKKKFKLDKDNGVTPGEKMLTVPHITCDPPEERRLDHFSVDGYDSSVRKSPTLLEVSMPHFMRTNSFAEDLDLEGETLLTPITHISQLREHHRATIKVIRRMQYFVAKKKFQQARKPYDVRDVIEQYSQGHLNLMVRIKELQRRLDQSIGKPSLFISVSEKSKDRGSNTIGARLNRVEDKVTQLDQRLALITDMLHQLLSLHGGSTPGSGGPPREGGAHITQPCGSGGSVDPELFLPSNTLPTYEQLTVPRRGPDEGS
Excerpt: as §1

NMDAR (1A/2B) = NMDAR (1A/2B) (Homo sapiens, UniProt Q05586+Q13224); test: SAFETYScan Ion Channel, Opener; format: cell-based
NMDAR (1A/2B), sequence (Q13224 27-1484, other chains not shown): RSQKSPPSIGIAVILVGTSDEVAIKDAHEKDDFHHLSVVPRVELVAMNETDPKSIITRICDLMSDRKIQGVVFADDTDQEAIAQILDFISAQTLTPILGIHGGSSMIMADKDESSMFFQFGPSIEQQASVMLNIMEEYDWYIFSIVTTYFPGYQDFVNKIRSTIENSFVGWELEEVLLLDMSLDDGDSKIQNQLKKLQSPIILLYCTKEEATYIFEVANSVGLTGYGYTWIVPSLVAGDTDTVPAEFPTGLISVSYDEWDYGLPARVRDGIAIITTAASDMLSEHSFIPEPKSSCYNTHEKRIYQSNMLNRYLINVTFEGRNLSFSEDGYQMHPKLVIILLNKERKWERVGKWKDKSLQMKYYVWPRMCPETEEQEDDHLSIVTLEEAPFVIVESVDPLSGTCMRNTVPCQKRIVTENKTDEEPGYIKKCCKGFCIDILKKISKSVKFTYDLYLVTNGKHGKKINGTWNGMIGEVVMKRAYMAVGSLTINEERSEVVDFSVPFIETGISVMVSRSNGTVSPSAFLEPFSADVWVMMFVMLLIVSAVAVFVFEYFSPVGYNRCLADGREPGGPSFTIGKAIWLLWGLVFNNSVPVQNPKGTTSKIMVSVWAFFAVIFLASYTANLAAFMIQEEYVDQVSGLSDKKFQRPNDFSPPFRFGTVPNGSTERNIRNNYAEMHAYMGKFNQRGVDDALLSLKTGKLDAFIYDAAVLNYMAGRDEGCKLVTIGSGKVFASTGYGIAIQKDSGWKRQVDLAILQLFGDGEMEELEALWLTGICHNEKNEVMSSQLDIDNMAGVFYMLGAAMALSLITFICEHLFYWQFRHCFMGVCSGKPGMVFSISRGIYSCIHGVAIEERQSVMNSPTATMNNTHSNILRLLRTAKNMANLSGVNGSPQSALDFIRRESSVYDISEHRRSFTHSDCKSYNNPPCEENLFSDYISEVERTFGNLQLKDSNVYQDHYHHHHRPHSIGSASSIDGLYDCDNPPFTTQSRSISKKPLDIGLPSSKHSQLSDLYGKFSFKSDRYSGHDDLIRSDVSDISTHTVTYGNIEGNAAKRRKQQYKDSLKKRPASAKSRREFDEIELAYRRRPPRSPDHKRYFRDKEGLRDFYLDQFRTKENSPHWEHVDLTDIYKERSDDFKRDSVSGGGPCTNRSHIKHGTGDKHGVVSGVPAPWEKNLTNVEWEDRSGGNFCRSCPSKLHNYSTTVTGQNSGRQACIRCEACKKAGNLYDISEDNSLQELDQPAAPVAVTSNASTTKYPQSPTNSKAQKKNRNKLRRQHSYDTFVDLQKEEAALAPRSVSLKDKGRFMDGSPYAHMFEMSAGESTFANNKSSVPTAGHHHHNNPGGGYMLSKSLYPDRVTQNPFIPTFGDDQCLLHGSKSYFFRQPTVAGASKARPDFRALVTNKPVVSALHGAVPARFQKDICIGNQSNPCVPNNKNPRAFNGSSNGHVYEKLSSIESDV
Excerpt: as §1

nAChR(a4/b2) = nAChR(a4/b2) (Homo sapiens, UniProt P17787+P43681); test: SAFETYScan Ion Channel, Opener; format: cell-based
nAChR(a4/b2), sequence (P43681 29-627 limits assumed): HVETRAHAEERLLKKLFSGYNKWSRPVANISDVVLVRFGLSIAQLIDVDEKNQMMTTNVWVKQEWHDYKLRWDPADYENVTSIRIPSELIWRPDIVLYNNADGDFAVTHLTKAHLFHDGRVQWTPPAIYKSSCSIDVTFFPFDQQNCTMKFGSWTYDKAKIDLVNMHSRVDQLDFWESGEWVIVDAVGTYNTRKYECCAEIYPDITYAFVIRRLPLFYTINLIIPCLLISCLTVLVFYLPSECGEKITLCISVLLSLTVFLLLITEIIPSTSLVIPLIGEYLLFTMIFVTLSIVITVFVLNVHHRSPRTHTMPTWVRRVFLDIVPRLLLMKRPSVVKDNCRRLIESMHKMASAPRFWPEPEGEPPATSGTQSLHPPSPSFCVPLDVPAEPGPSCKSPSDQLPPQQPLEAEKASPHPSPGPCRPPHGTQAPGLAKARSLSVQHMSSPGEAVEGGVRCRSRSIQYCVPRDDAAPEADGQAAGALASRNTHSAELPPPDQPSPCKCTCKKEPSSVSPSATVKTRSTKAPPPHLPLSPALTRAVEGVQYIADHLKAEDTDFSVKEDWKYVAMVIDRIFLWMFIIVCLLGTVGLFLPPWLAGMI
nAChR(a4/b2), sequence (P17787 26-502): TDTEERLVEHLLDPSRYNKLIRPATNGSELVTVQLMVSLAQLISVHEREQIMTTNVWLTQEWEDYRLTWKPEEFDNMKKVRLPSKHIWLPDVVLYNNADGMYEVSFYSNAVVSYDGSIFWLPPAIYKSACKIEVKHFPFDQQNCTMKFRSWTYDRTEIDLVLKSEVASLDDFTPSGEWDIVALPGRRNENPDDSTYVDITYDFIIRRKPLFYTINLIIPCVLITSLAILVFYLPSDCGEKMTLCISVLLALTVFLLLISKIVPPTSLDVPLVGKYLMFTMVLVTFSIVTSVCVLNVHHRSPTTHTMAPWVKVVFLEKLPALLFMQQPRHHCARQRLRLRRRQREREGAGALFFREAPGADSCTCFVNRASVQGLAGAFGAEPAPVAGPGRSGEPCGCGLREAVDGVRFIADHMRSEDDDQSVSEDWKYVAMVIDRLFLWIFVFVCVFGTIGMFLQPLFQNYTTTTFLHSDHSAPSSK
Excerpt: as §1

kinases (468) [2] = molecular target: kinases (468) (Homo sapiens, UniProt O75914); details: PAK3; 1000 nM
kinases (468) (Homo sapiens, UniProt O75914), sequence (O75914 whole entry): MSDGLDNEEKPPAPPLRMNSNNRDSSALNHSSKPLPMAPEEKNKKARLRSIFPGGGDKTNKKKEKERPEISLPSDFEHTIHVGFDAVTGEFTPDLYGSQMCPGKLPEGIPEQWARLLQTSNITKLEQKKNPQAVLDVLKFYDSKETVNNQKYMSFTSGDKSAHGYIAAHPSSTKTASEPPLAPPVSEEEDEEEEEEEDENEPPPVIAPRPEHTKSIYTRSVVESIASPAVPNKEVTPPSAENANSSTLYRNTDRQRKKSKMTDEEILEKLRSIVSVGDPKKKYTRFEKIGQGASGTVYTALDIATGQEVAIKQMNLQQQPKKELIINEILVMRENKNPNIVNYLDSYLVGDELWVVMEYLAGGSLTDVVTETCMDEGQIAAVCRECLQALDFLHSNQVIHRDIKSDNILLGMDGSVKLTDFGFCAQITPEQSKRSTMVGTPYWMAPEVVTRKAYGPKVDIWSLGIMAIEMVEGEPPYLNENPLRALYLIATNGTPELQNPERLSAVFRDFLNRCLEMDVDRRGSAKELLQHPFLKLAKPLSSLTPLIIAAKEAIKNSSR

kinases (468) [3] = molecular target: kinases (468) (Homo sapiens, UniProt P00533, L861Q); details: EGFR(L861Q); 1000 nM
kinases (468) [4] = molecular target: kinases (468) (Homo sapiens, UniProt P17612); details: PKAC-alpha (PRKACA); 1000 nM
kinases (468) [5] = molecular target: kinases (468) (Homo sapiens, UniProt P30291); details: kinase WEE1 (Entrez WEE1); compound concentration 1000 nM
kinases (468) [6] = molecular target: kinases (468) (Homo sapiens, UniProt P45984); details: JNK2 (MAPK9); 1000 nM
kinases (468) (Homo sapiens, UniProt P45984), sequence (P45984 whole entry): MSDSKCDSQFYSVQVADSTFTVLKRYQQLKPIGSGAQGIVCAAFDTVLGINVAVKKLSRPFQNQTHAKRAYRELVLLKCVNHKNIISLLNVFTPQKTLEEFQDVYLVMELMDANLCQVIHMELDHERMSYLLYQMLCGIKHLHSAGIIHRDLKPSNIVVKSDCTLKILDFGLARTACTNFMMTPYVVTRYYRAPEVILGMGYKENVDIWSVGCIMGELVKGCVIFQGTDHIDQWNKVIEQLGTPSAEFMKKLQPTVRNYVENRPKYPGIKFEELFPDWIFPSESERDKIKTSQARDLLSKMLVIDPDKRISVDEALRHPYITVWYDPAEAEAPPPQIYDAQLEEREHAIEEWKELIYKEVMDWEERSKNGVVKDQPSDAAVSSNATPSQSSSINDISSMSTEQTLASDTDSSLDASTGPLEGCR

kinases (468) [7] = molecular target: kinases (468) (Homo sapiens, UniProt P51957); details: NEK4; 1000 nM
kinases (468) [8] = molecular target: kinases (468) (Homo sapiens, UniProt Q6PHR2); details: kinase ULK3 (Entrez ULK3); compound concentration 1000 nM
kinases (468) [9] = molecular target: kinases (468) (Homo sapiens, UniProt Q9HCP0); details: CSNK1G1; 1000 nM
kinases (468) (Homo sapiens, UniProt Q9HCP0), sequence (Q9HCP0 whole entry): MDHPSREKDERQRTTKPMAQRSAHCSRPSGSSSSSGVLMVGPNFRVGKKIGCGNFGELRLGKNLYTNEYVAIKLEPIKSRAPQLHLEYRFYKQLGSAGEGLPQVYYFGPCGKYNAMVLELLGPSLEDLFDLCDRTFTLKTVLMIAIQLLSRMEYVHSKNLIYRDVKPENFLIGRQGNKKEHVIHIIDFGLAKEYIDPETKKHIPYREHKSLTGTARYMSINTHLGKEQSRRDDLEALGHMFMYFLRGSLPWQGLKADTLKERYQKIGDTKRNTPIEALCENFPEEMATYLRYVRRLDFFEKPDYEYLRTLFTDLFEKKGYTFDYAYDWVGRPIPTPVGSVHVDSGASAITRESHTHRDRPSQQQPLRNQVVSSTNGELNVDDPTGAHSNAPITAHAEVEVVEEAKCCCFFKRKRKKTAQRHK

kinases (468) [10] = molecular target: kinases (468) (Homo sapiens, UniProt Q9Y6E0); details: MST3 (STK24); 1000 nM

Compound | microsomal CLint at 0.5 h, 1 µM ([1]; both sexes, pH 7.4) [µL/min/mg] | CLint (HLM) [1] | Emax (GABAA) [%] | Emax (HTR3A; read-out: Max Response) [%] | EC50 (HTR3A; read-out: RC50 (EC50)) [µM] | Emax (KvLQT1/minK; read-out: Max Response) [%] | EC50 (KvLQT1/minK; read-out: RC50 (EC50)) [µM] | Emax (NMDAR (1A/2B); read-out: Max Response) [%] | EC50 (NMDAR (1A/2B); read-out: RC50 (EC50)) [µM] | Emax (nAChR(a4/b2); read-out: Max Response) [%] | EC50 (nAChR(a4/b2); read-out: RC50 (EC50)) [µM] | Percent Control (kinases (468) [2]) [%] | Percent Control (kinases (468) [3]) [%] | Percent Control (kinases (468) [4]) [%] | Percent Control (kinases (468) [5]) [%] | Percent Control (kinases (468) [6]) [%] | Percent Control (kinases (468) [7]) [%] | Percent Control (kinases (468) [8]) [%] | Percent Control (kinases (468) [9]) [%] | Percent Control (kinases (468) [10]) [%]
C[C@H]1C[C@@H](O)CN(c2ncc(Cl)c(Nc3ccc4c(c3)c3c(c(=O)n4C)OCC(F)(F)[C@H](C4CC4)N3)n2)C1 [12a CCT373566, (S)-10-((5-Chloro-2-((3R,5S)-3-hydroxy-5-methylpiperidin-1-yl)pyrimidin-4-yl)amino)-2-cyclopropyl-3,3-difluoro-7-methyl-1,2,3,4-tetrahydro-[1,4]oxazepino[2,3-c]quinolin-6(7H)-one] | 8 | low clearance | 4.81 | 1.5 | > 10 | 3.79 | > 10 | 1.31 | > 10 | 0 | > 10 | – | – | – | – | – | – | – | – | –
C[C@H]1C[C@@H](O)CN(c2ncc(Cl)c(Nc3ccc4c(c3)c3c(c(=O)n4C)OCC(F)(F)[C@H](C4CC4)N3)n2)C1 [CCT373566_9A] | – | – | – | – | – | – | – | – | – | – | – | 99 | 100 | 100 | 89 | 78 | 91 | 93 | 97 | 80
